Source: ChEMBL document CHEMBL1151469, “Cytotoxic activity of N-chlorotaurine on Acanthamoeba spp” (Antimicrob Agents Chemother, 2008)
The source made the active and inactive calls. The rule behind the calls is not given here.

How the values were obtained:
Acanthamoeba hatchetti [1] = experiment: Amoebicidal activity against Trophozoites of Acanthamoeba hatchetti 11DS assessed as killing time at 20 mM in peptone yeast extract glucose medium at pH 7 by hemocytometer using trypan blue stain; assay type: functional
Acanthamoeba castellanii [2] = experiment: Amoebicidal activity against excysted trophozoites of Acanthamoeba castellanii 4CL at 55 mM in peptone yeast extract glucose medium after 4 days by hemocytometer using trypan blue stain; assay type: functional
Acanthamoeba hatchetti [3] = experiment: Amoebicidal activity against Trophozoites of Acanthamoeba hatchetti 11DS in phosphate buffered saline at pH 7 after 6 hrs by hemocytometer using trypan blue stain in presence of 34 mM ammonium chloride; assay type: functional, organism-based
Acanthamoeba polyphaga [4] = experiment: Amoebicidal activity against Trophozoites of Acanthamoeba polyphaga 5SU assessed as killing time at 10 mM in phosphate buffered saline at pH 7 by hemocytometer using trypan blue stain; assay type: functional
Acanthamoeba hatchetti [5] = experiment: Amoebicidal activity against Trophozoites of Acanthamoeba hatchetti 11DS in phosphate buffered saline at pH 7 after 24 hrs by hemocytometer using trypan blue stain; assay type: functional, organism-based
Acanthamoeba polyphaga [6] = experiment: Amoebicidal activity against Trophozoites of Acanthamoeba polyphaga 5SU in phosphate buffered saline at pH 7 after 1 hr by hemocytometer using trypan blue stain in presence of 34 mM ammonium chloride; assay type: functional, organism-based
Acanthamoeba hatchetti [7] = experiment: Amoebicidal activity against Trophozoites of Acanthamoeba hatchetti 11DS assessed as log reduction in cell count at 10 mM in phosphate buffered saline at pH 5 after 24 hrs by hemocytometer using trypan blue staining in presence of 160 mM mM beta-alanine; assay type: functional, organism-based
Acanthamoeba hatchetti [8] = experiment: Amoebicidal activity against Trophozoites of Acanthamoeba hatchetti 11DS assessed as log reduction in cell count at 10 mM in phosphate buffered saline at pH 5 within 1 hr by hemocytometer using trypan blue stain in presence of 290 mM ammonium chloride; assay type: functional
Acanthamoeba castellanii [9] = experiment: Amoebicidal activity against excysted trophozoites of Acanthamoeba castellanii 40AB at 55 mM in peptone yeast extract glucose medium after 6 days by hemocytometer using trypan blue stain; assay type: functional
Acanthamoeba polyphaga [10] = experiment: Amoebicidal activity against Trophozoites of Acanthamoeba polyphaga 5SU assessed as log reduction in cell count at 10 mM in phosphate buffered saline at pH 7 after 6 hrs by hemocytometer using trypan blue staining; assay type: functional, organism-based
Acanthamoeba polyphaga [11] = experiment: Amoebicidal activity against Trophozoites of Acanthamoeba polyphaga 5SU assessed as complete loss of viability at 55 mM in phosphate buffered saline incubated in xenic agar medium after 14 days by hemocytometer using trypan blue stain in presence of 190 mM ammonium chloride; assay type: functional, organism-based
Acanthamoeba hatchetti [12] = experiment: Amoebicidal activity against Trophozoites of Acanthamoeba hatchetti 11DS assessed as killing time at 55 mM in phosphate buffered saline at pH 7 by hemocytometer using trypan blue stain; assay type: functional
Acanthamoeba polyphaga [13] = experiment: Amoebicidal activity against Trophozoites of Acanthamoeba polyphaga 5SU in phosphate buffered saline at pH 7 after 1 hr by hemocytometer using trypan blue stain; assay type: functional, organism-based
Acanthamoeba polyphaga [14] = experiment: Amoebicidal activity against Trophozoites of Acanthamoeba polyphaga 5SU assessed as killing time at 0.16 M in peptone yeast extract glucose medium at pH 7 by hemocytometer using trypan blue stain; assay type: functional
Acanthamoeba polyphaga [15] = experiment: Amoebicidal activity against Trophozoites of Acanthamoeba polyphaga 5SU assessed as reduction in cell count at 20 mM in peptone yeast extract glucose medium at pH 7 after 6 hrs by hemocytometer using trypan blue stain in presence of 580 mM ammonium chloride; assay type: functional, organism-based
Acanthamoeba hatchetti [16] = experiment: Amoebicidal activity against Trophozoites of Acanthamoeba hatchetti 11DS assessed as log reduction in cell count at 20 mM in peptone yeast extract glucose medium at pH 7 after 24 hrs by hemocytometer using trypan blue stain; assay type: functional
Acanthamoeba polyphaga [17] = experiment: Amoebicidal activity against Trophozoites of Acanthamoeba polyphaga 5SU in phosphate buffered saline at pH 7 after 6 hrs by hemocytometer using trypan blue stain; assay type: functional, organism-based
Acanthamoeba polyphaga [18] = experiment: Amoebicidal activity against Trophozoites of Acanthamoeba polyphaga 5SU assessed as log reduction in cell count at 10 mM in phosphate buffered saline at pH 7 after 6 hrs by hemocytometer using trypan blue stain; assay type: functional
Acanthamoeba hatchetti [19] = experiment: Amoebicidal activity against Trophozoites of Acanthamoeba hatchetti 11DS assessed as rounding of the cells at 55 mM in peptone yeast extract glucose medium at pH 7 after 30 mins by hemocytometer using trypan blue stain; assay type: functional, organism-based
Acanthamoeba hatchetti [20] = experiment: Amoebicidal activity against Trophozoites of Acanthamoeba hatchetti 11DS assessed as log reduction in cell count at 10 mM in phosphate buffered saline at pH 5 after 24 hrs by hemocytometer using trypan blue stain; assay type: functional, organism-based
Acanthamoeba polyphaga [21] = experiment: Amoebicidal activity against Trophozoites of Acanthamoeba polyphaga 5SU assessed as log reduction in cell count at 10 mM in phosphate buffered saline at pH 5 after 6 hrs by hemocytometer using trypan blue stain in presence of 34 mM ammonium chloride; assay type: functional, organism-based
Acanthamoeba polyphaga [22] = experiment: Amoebicidal activity against Trophozoites of Acanthamoeba polyphaga 5SU assessed as killing time at 55 mM in phosphate buffered saline at pH 7 by hemocytometer using trypan blue stain; assay type: functional
Acanthamoeba castellanii [23] = experiment: Amoebicidal activity against excysted trophozoites of Acanthamoeba castellanii 40AB at 55 mM in peptone yeast extract glucose medium after 24 hrs by hemocytometer using trypan blue stain; assay type: functional
Acanthamoeba castellanii [24] = experiment: Amoebicidal activity against Trophozoites of Acanthamoeba castellanii 4CL assessed as killing time at 20 mM in peptone yeast extract glucose medium at pH 7 by hemocytometer using trypan blue stain; assay type: functional
Acanthamoeba polyphaga [25] = experiment: Amoebicidal activity against Trophozoites of Acanthamoeba polyphaga 5SU assessed as log reduction in cell count at 10 mM in phosphate buffered saline at pH 5 after 6 hrs by hemocytometer using trypan blue stain; assay type: functional, organism-based
Acanthamoeba polyphaga [26] = experiment: Amoebicidal activity against excysted trophozoites of Acanthamoeba polyphaga 5SU at 55 mM in peptone yeast extract glucose medium after 11 days by hemocytometer using trypan blue stain; assay type: functional
Acanthamoeba polyphaga [27] = experiment: Amoebicidal activity against Trophozoites of Acanthamoeba polyphaga 5SU in peptone yeast extract glucose medium at pH 7 after 1 hr by hemocytometer using trypan blue stain; assay type: functional, organism-based
Acanthamoeba hatchetti [28] = experiment: Amoebicidal activity against Trophozoites of Acanthamoeba hatchetti 11DS in peptone yeast extract glucose medium at pH 7 after 6 hrs by hemocytometer using trypan blue stain in presence of 68 mM ammonium chloride; assay type: functional, organism-based
Acanthamoeba polyphaga [29] = experiment: Amoebicidal activity against Trophozoites of Acanthamoeba polyphaga 5SU assessed as reduction killing time at 55 mM in phosphate buffered saline at pH 7 by hemocytometer using trypan blue stain in presence of 190 mM ammonium chloride; assay type: functional, organism-based
Acanthamoeba castellanii [30] = experiment: Amoebicidal activity against excysted trophozoites of Acanthamoeba castellanii 40AB at 55 mM in peptone yeast extract glucose medium after 4 days by hemocytometer using trypan blue stain; assay type: functional
Acanthamoeba polyphaga [31] = experiment: Amoebicidal activity against Trophozoites of Acanthamoeba polyphaga 5SU in phosphate buffered saline at pH 7 after 24 hrs by hemocytometer using trypan blue stain; assay type: functional, organism-based
Acanthamoeba hatchetti [32] = experiment: Amoebicidal activity against excysted trophozoites of Acanthamoeba hatchetti 11DS at 55 mM in peptone yeast extract glucose medium after 11 days by hemocytometer using trypan blue stain; assay type: functional
Acanthamoeba hatchetti [33] = experiment: Amoebicidal activity against Trophozoites of Acanthamoeba hatchetti 11DS in phosphate buffered saline at pH 7 after 1 hr by hemocytometer using trypan blue stain; assay type: functional, organism-based
Acanthamoeba hatchetti [34] = experiment: Amoebicidal activity against Trophozoites of Acanthamoeba hatchetti 11DS assessed as log reduction in cell count at 20 mM in peptone yeast extract glucose medium at pH 7 after 6 hrs by hemocytometer using trypan blue stain; assay type: functional, organism-based

O=S(=O)(O)CCNCl
Activity (Acanthamoeba hatchetti [1]): 36 h
Activity (Acanthamoeba castellanii [2]): 2000
EC50 (Acanthamoeba hatchetti [3]): 5.19 mM
EC90 (Acanthamoeba hatchetti [3]): 9.13 mM
Activity (Acanthamoeba polyphaga [4]): 15 h
EC50 (Acanthamoeba hatchetti [5]): 3.65 mM
EC90 (Acanthamoeba hatchetti [5]): 7.56 mM
EC50 (Acanthamoeba polyphaga [6]): 5.31 mM
EC90 (Acanthamoeba polyphaga [6]): 9.5 mM
Activity (Acanthamoeba hatchetti [7]): Active
Activity (Acanthamoeba hatchetti [8]): 2
Activity (Acanthamoeba castellanii [9]): 38000
Activity (Acanthamoeba polyphaga [10]): Active
Activity (Acanthamoeba polyphaga [11]): inactive
Activity (Acanthamoeba hatchetti [12]): 30 min
EC50 (Acanthamoeba polyphaga [13]): 29.3 mM
Activity (Acanthamoeba polyphaga [14]): 30 min
Activity (Acanthamoeba polyphaga [15]): Active
Activity (Acanthamoeba hatchetti [16]): 2
EC50 (Acanthamoeba polyphaga [17]): 4 mM
EC90 (Acanthamoeba polyphaga [17]): 7.95 mM
Activity (Acanthamoeba polyphaga [18]): 2
Activity (Acanthamoeba hatchetti [19]): Active
Activity (Acanthamoeba hatchetti [20]): Active
Activity (Acanthamoeba polyphaga [21]): Active
Activity (Acanthamoeba polyphaga [22]): 1 h
Activity (Acanthamoeba castellanii [23]): 0
Activity (Acanthamoeba castellanii [24]): 36 h
Activity (Acanthamoeba polyphaga [25]): Active
Activity (Acanthamoeba polyphaga [26]): 200000
EC50 (Acanthamoeba polyphaga [27]): 23.1 mM
EC50 (Acanthamoeba hatchetti [28]): 10.4 mM
Activity (Acanthamoeba polyphaga [29]): inactive
Activity (Acanthamoeba castellanii [30]): 13000
EC50 (Acanthamoeba polyphaga [31]): 3.47 mM
EC90 (Acanthamoeba polyphaga [31]): 7.38 mM
Activity (Acanthamoeba hatchetti [32]): 410000
EC50 (Acanthamoeba hatchetti [33]): 15.5 mM
Activity (Acanthamoeba hatchetti [34]): Active
